Test results as given in PMC10778976, “BAY-3827 and SBI-0206965: Potent AMPK Inhibitors That Paradoxically Increase Thr172 Phosphorylation” (International Journal of Molecular Sciences, 2023).
Values after ≈ are worked out from the molar mass of the structure shown. Where two headings read alike, the source gives them in different places.

Legend:
[1] = set-up: method as in ref 32 = [32]; 32. Lemos C. Schulze A. Overview for BAY-3827, an Inhibitor of PRKAA1, RPS6KA1 Available online: https://www.sgc-ffm.uni-frankfurt.de/chemProbes#!specificprobeoverview/BAY-3827 (accessed on 14 Novembe); settings: rat hepatocytes; cited from earlier work
[2] = molecular target: T1, “naïve” (unphosphorylated), bacterially expressed human α1β1γ1 complex (Homo sapiens, UniProt Q13131+Q9Y478); test: Allosteric activation of naïve (unphosphorylated) α1β1γ1 complex by MK-8722 with and without BAY-3827; type: biochemical; settings: BAY-3827 30 nM
T1 construct: (His)6
T1 sequence (Q13131 whole entry): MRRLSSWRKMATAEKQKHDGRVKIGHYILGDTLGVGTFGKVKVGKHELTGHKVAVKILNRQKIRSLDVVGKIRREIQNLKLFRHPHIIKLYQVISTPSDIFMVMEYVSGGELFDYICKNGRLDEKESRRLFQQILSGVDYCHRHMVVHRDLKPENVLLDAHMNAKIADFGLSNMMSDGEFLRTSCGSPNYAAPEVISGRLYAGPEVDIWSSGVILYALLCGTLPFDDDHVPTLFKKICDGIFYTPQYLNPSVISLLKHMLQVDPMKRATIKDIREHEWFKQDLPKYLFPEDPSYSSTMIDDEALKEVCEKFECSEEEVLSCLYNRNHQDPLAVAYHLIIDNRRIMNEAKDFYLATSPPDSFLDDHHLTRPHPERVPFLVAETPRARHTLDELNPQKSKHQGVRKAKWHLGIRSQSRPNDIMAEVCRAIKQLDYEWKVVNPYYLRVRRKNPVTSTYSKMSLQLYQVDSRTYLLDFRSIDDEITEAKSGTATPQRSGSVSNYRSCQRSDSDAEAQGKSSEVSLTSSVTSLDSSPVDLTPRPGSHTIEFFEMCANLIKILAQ
T1 sequence (Q9Y478 2-270): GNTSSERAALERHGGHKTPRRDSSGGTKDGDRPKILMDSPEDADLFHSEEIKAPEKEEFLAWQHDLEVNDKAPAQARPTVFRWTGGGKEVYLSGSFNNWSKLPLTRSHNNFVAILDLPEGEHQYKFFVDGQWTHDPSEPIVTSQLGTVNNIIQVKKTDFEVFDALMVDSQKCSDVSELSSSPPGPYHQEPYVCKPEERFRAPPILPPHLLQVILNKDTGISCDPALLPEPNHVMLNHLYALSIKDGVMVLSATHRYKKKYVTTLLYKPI
T1 sequence (P54619 whole entry partner): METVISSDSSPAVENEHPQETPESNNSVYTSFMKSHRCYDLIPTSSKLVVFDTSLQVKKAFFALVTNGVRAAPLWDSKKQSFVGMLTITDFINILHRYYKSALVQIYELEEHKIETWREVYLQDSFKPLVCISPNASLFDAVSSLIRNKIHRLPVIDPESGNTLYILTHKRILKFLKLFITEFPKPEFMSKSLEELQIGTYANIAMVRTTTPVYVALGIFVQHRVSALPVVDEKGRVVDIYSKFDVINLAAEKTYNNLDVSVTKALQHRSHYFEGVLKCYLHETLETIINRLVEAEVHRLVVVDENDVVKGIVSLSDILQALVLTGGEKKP
Description: (§1) AMPK assays measured the transfer of radioactivity from labelled ATP to a peptide substrate, which was separated from unreacted ATP by binding to P81 paper. This assay was described previously, except that we used [γ-^33P]ATP rather than [γ-^32P]ATP. The peptide substrate was the AMARA peptide in all experiments other than one, which analyzed allosteric activation by AMP (Figure 2A), when, for technical reasons, the SAMS peptide was used instead. With purified preparations of AMPK, it was assayed in solution, but for assays in cell lysates (Figure 3D and Figure 4D), it was first immunoprecipitated using a mixture of anti-α1 and -α2 antibodies and assayed in resuspended immunoprecipitates. After the initial immunoprecipitation of lysate containing 80 µg of protein, the pellets were washed twice with 1 mL of high salt IP buffer (50 mM Tris-HCL, pH 7.4 at 4 °C, 1 M NaCl, 1 mM EDTA, 1 mM EGTA, 50 mM NaF, 5 mM Na pyrophosphate, 1 mM dithiothreitol, 0.1% (v/v) Triton X-100) and twice with 1 mL of low salt IP buffer (as above but only 150 mM NaCl), followed by a final wash in 1 mL of assay buffer (50 mM Na Hepes, pH7.4, 150 mM NaCl, 1 mM dithiothreitol, 0.02% (v/v) Brij-35). After each wash, the pellet was recovered via centrifugation (16,000× g, 3 min) and then resuspended. The final resuspended pellets from each biological replicate were divided into two aliquots (40 µg lysate protein) to provide technical replicates and assayed as above.

human α2β2γ1 complex [3] = molecular target: T2, human α2β2γ1 complex (Homo sapiens, UniProt O43741+P54619+P54646); test: Cell-free kinase assay of bacterially expressed human α2β2γ1 complex phosphorylated on Thr172 by CaMKK2; type: biochemical; settings: ATP 200 µM; read-out: IC50, inhibition of human α2β2γ1 complex
T2 construct: (His)6
T2 sequence (P54646 whole entry): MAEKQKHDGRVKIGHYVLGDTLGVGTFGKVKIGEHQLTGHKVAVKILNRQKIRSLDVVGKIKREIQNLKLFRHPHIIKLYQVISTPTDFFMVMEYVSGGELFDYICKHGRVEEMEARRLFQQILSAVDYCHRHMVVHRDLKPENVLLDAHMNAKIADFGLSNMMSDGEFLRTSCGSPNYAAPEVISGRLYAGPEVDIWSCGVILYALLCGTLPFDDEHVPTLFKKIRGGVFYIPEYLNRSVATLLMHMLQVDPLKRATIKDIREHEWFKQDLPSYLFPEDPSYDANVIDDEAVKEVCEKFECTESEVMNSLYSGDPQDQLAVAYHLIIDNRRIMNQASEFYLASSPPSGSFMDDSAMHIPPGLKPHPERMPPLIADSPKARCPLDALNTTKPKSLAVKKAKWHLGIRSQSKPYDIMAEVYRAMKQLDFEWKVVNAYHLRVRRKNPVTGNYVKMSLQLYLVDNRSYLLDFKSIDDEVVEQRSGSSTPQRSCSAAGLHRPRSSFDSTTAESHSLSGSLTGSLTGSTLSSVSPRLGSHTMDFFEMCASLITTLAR
T2 sequence (O43741 whole entry partner): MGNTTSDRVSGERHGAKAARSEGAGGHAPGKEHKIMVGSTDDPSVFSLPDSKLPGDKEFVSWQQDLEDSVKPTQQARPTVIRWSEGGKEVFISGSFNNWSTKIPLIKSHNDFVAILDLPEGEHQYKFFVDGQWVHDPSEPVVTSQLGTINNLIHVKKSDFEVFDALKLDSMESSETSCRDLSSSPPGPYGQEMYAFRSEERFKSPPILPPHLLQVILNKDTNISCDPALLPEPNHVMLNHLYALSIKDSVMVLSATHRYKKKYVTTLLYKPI
T2 sequence (P54619 whole entry partner): as the sequence (P54619 whole entry partner) above
Description: as §1, with “The final resuspended pellets from each biological replicate were divided into two aliquots (40 µg lysate protein) to provide technical replicates and assayed as above.” left out

[4] = set-up: method as in ref 32 = [32]; 32. Lemos C. Schulze A. Overview for BAY-3827, an Inhibitor of PRKAA1, RPS6KA1 Available online: https://www.sgc-ffm.uni-frankfurt.de/chemProbes#!specificprobeoverview/BAY-3827 (accessed on 14 Novembe); settings: mouse liver microsomes; cited from earlier work
Aqueous solubility = type: physicochemical; settings: aqueous medium (not further specified)
human α2β2γ1 complex [5] = molecular target: T3, human α2β2γ1 complex (Homo sapiens, UniProt P54646); test: Cell-free kinase assay of bacterially expressed human α2β2γ1 complex phosphorylated on Thr172 by CaMKK2; type: biochemical; settings: ATP 200 µM; read-out: IC50, inhibition of human α2β2γ1 complex
T3 construct: (His)6
T3 sequence (P54646 whole entry): as the sequence (P54646 whole entry) above
T3 sequence (O43741 whole entry partner): as the sequence (O43741 whole entry partner) above
T3 sequence (P54619 whole entry partner): as the sequence (P54619 whole entry partner) above
Description: as §1, with “The final resuspended pellets from each biological replicate were divided into two aliquots (40 µg lysate protein) to provide technical replicates and assayed as above.” left out

[6] = system: phosphorylation of Ser29 on ATG14, an established target for ULK1, in U2OS cells; test: ATG14 phosphorylation (ULK1 target) in U2OS cells (Western blot); type: cell-based, human; settings: read-out: IC50, inhibition of ATG14 (Ser29) phosphorylation
Method: T-Rex U2OS cells carrying a Flp Recombinase Target (FRT) site were generated as described previously and grown in Dulbecco’s Modified Eagle’s Medium (DMEM) supplemented with 10% (v/v) FBS and 1% (v/v) penicillin/streptomycin.
Cells were lysed rapidly in situ on culture plates using ice-cold lysis medium containing phosphatase inhibitors, as described previously.
SDS-PAGE was performed using precast NuPAGE Tris-acetate 3–8% gradient polyacrylamide gels in Tris-acetate running buffer when analyzing ACC, GBF1, or Raptor, or NuPAGE Bis-Tris 4–12% gradient polyacrylamide gels in the MOPS buffer system (ThermoFisher Scientific, Waltham, MA, USA) for other proteins (unless stated otherwise). Proteins were transferred to nitrocellulose membranes using the iBlot 2 system (ThermoFisher Scientific). Membranes were enhanced if necessary using SuperSignal Western Blot Enhancer (ThermoFisher Scientific), then blocked for 1 h in Li-Cor Odyssey blocking buffer. The membranes were probed with the appropriate primary antibody (0.1–1 mg/mL) overnight at 4 °C. […] Protein concentrations were determined by Coomassie Blue binding with bovine serum albumin as a standard. The cellular levels of AMP and ATP were determined via direct perchloric acid extraction from cells, with LC:MS used to estimate the levels of each nucleotide.

Compound | in vitro clearance (CL) [1] | oral bio-availability (Fmax) [1] | fold increase of EC50 for MK-8722 [2] | basal activity (without MK-8722) ([2]; control without inhibitor 11) | IC50 (human α2β2γ1 complex [3]) | in vitro clearance (CL) [4] | oral bio-availability (Fmax) [4] | solubility (Aqueous solubility) | IC50 (human α2β2γ1 complex [5]) | IC50 [6]
CCc1ccccc1C(=O)Nc1n[nH]c2c(C)c(F)c(C3C(C#N)=C(C)N(C)C(C)=C3C#N)cc12 [BAY-3827] | 55 mL/min/kg | 21% | 7 fold | 8.7 nmol/min/mg | 70 nM | 83 mL/min/kg | 7% | 0.3 µg/mL (≈ 0.64 µM) |  | 
CNC(=O)c1ccccc1Oc1nc(Nc2cc(OC)c(OC)c(OC)c2)ncc1Br [SBI-0206965] |  |  |  |  |  |  |  |  | 206 nM | 67000 nM
